In patent US12371454B2, “Cyclic peptide compound having Kras inhibitory action” (priority 2019, dated 2025) one finds IC50 data, which are given here for 13 molecules.

Broadly, the IC50 is the concentration needed to halve the response being measured.

Starred links: 1 amine or outer side, 2 acyl side, 3 side chain; linkers in the order of their positions; H or OH if unused. Positions of bridges follow the written chain, without caps; N, C: chain ends. Non-standard residues stand in square brackets, D forms with d. Residues, ends and D or L forms follow the SMILES beside them. *: point of attachment. hPhe(3-Cl-4-CF3) = N[C@@H](CCc1ccc(C(F)(F)F)c(Cl)c1)C(=O)O; X48 = O=C([C@H](CCc1ccc(S(F)(F)(F)(F)F)cc1)N[*:1])[*:2]; NMePhe(3-CF3) = CN[C@@H](Cc1cccc(C(F)(F)F)c1)C(=O)O; hPhe(4-CF3) = N[C@@H](CCc1ccc(C(F)(F)F)cc1)C(=O)O; 3Oxa8azabicyclo(3.2.1)octane = C1CC2COCC1N2*; NMePhe(3-Cl) = CN[C@@H](Cc1cccc(Cl)c1)C(=O)O; NMePhe(4-Cl) = CN[C@@H](Cc1ccc(Cl)cc1)C(=O)O; NMeGly(cPent) = CN[C@H](C(=O)O)C1CCCC1; Phe(3-I) = N[C@@H](Cc1cccc(I)c1)C(=O)O; NMeCha = CN[C@@H](CC1CCCCC1)C(=O)O; NMeF = CN[C@@H](Cc1ccccc1)C(=O)O; NMeT = CN[C@H](C(=O)O)[C@@H](C)O; d(β3hL) = CC(C)C[C@@H](N)CC(=O)O; N(CH2CH2)2CF2 = FC1(F)CCN(*)CC1; NMeD = CN[C@@H](CC(=O)O)C(=O)O; NMeL = CN[C@@H](CC(C)C)C(=O)O; NMeNva = CCC[C@H](NC)C(=O)O; NMeV = CN[C@H](C(=O)O)C(C)C; d(β3hA) = C[C@@H](N)CC(=O)O; NMeA = CN[C@@H](C)C(=O)O; NMeAib = CNC(C)(C)C(=O)O; Nle = CCCC[C@H](N)C(=O)O; Piperidide = C1CCN(*)CC1; Pyrrolidide = C1CCN(*)C1; Ac5c = NC1(C(=O)O)CCCC1; Aze = O=C(O)[C@@H]1CCN1; NBuGly = CCCCNCC(=O)O; Sar = CNCC(=O)O

The target in the assay is T1, Kras and SOS1 (biotin-tagged human Kras loaded with GDP, His-tagged human SOS1) (Homo sapiens, UniProt P01116, G12D).
T1 construct: made in house; host or cells: E. coli (stated for Kras only)
T1 sequence (P01116 1-188 isoform P01116-2 G12D): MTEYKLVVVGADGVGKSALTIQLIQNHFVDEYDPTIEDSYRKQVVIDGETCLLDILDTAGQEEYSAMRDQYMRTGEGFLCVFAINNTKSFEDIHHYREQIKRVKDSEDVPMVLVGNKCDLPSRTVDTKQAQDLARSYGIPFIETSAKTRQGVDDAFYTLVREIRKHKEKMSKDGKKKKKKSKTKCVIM
In words: Protein-protein interaction inhibition between Kras and SOS1 (KrasGl2D-SOS PPI) using AlphaScreen. The following applies: AlphaScreen; biotin-tagged human Kras loaded with GDP, His-tagged human SOS1; read-out: KRAS G12D-SOS PPI IC50. Type of assay: binding. Summed up:
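Read-out is acceptor-bead light at 520-620 nm, arising when 680 nm-irradiated nickel donor beads pass singlet oxygen to streptavidin acceptors. The bead pair links His-tagged SOS1 with biotin-tagged, GDP-bound Kras from E. coli.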
On the technique in general: Alpha assays give light when donor and acceptor beads are brought close together.

For the molecule `CC[C@H](C)[C@@H]1NC(=O)[C@H](CC(C)C)N(C)C(=O)C[C@@H](C)NC(=O)[C@H](C(C)C)N(C)C(=O)C2(CCCC2)NC(=O)[C@@H]2CCCN2C(=O)[C@H](CCc2ccc(C(F)(F)F)c(Cl)c2)NC(=O)CN(C)C(=O)[C@H](CC2CCCCC2)N(C)C(=O)CN(C)C(=O)[C@@H]2CCN2C1=O` [Compound 1020] (cyclo([Ac5c][NMeV][d(β3hA)][NMeL]I[Aze][Sar][NMeCha][Sar][hPhe(3-Cl-4-CF3)]P)), the IC50 was 51 nM.

As for `CC[C@H](C)[C@@H]1NC(=O)[C@H](CC(C)C)N(C)C(=O)C[C@@H](C)NC(=O)[C@H](CC(C)C)N(C)C(=O)C2(CCCC2)NC(=O)[C@@H]2CCCN2C(=O)[C@H](CCc2ccc(S(F)(F)(F)(F)F)cc2)NC(=O)CN(C)C(=O)[C@H](CC2CCCCC2)N(C)C(=O)CN(C)C(=O)CN(C)C1=O` [Compound 1021] (cyclo([Ac5c][NMeL][d(β3hA)][NMeL]I[Sar][Sar][NMeCha][Sar][X48]P)), the IC50 worked out at 240 nM.

For the molecule `CCC[C@H]1C(=O)N(C)CC(=O)N[C@@H](CCc2ccc(C(F)(F)F)c(Cl)c2)C(=O)N2CCC[C@H]2C(=O)NC2(CCCC2)C(=O)N(C)[C@@H](C(C)C)C(=O)N(C)[C@H](C(=O)N2CCCCC2)CC(=O)N(C)[C@@H](CC(C)C)C(=O)N[C@@H]([C@@H](C)CC)C(=O)N(C)[C@@H](C)C(=O)N2CC[C@H]2C(=O)N1C` [Compound 1027] ([NMeL]I[NMeA][Aze][NMeNva][Sar][hPhe(3-Cl-4-CF3)]P[Ac5c][NMeV][NMeD]-Piperidide; lactam N-11), the IC50 worked out at 8.2 nM.

Regarding `CC[C@H](C)[C@@H]1NC(=O)[C@H](C)N(C)C(=O)C[C@@H](C)NC(=O)[C@H](CC(C)C)N(C)C(=O)[C@H](Cc2ccccc2)N(C)C(=O)[C@@H]2CCCN2C(=O)[C@H](CCc2ccc(C(F)(F)F)cc2)NC(=O)CN(C)C(=O)[C@H](CC2CCCCC2)N(C)C(=O)CN(C)C(=O)CN(C)C1=O` [Compound 1031] (cyclo(I[Sar][Sar][NMeCha][Sar][hPhe(4-CF3)]P[NMeF][NMeL][d(β3hA)][NMeA])), the IC50 was found to be 320 nM.

For the molecule `CC[C@H](C)[C@@H]1NC(=O)[C@H](CC(C)C)N(C)C(=O)C[C@@H](CC(C)C)NC(=O)[C@H](C(C)C)N(C)C(=O)C2(CCCC2)NC(=O)[C@@H]2CCCN2C(=O)[C@H](CCc2ccc(C(F)(F)F)c(Cl)c2)NC(=O)CN(C)C(=O)[C@H](CC2CCCCC2)N(C)C(=O)CN(C)C(=O)CN(C)C1=O` [Compound 1032] (cyclo([Ac5c][NMeV][d(β3hL)][NMeL]I[Sar][Sar][NMeCha][Sar][hPhe(3-Cl-4-CF3)]P)), the IC50 is 60 nM.

Take `CCCCN1CC(=O)N(C)[C@@H](CC2CCCCC2)C(=O)N(C)CC(=O)N[C@@H](CCc2ccc(C(F)(F)F)c(Cl)c2)C(=O)N2CCC[C@H]2C(=O)NC2(CCCC2)C(=O)N(C)[C@@H](C(C)C)C(=O)N[C@H](C)CC(=O)N(C)[C@@H](CC(C)C)C(=O)N[C@@H]([C@@H](C)CC)C(=O)N(C)CC1=O` [Compound 1033] (cyclo([Ac5c][NMeV][d(β3hA)][NMeL]I[Sar][NBuGly][NMeCha][Sar][hPhe(3-Cl-4-CF3)]P)): the IC50 is 360 nM.

Take `CC[C@H](C)[C@@H]1NC(=O)[C@H](CC(C)C)N(C)C(=O)C[C@@H](C(=O)N2C3CCC2COC3)N(C)C(=O)[C@H](C2CCCC2)N(C)C(=O)C2(CCCC2)NC(=O)[C@H](CC(=O)N2CCC(F)(F)CC2)N(C)C(=O)[C@H](CCc2ccc(C(F)(F)F)c(Cl)c2)NC(=O)CN(C)C(=O)[C@H](CC2CCCCC2)N(C)C(=O)[C@@H]2CCN2C(=O)[C@H](C)N(C)C1=O` [Compound 1039] ([NMeL]I[NMeA][Aze][NMeCha][Sar][hPhe(3-Cl-4-CF3)][NMeD](N(CH2CH2)2CF2)[Ac5c][NMeGly(cPent)][NMeD]-{3Oxa8azabicyclo(3.2.1)octane}; lactam N-11): the IC50 is 45 nM.

Turning to `CC[C@H](C)[C@@H]1NC(=O)[C@H](CC(C)C)N(C)C(=O)C[C@@H](C(=O)N2CCCCC2)N(C)C(=O)[C@H]([C@@H](C)O)N(C)C(=O)C2(CCCC2)NC(=O)[C@@H]2CCCN2C(=O)[C@H](CCc2ccc(C(F)(F)F)c(Cl)c2)NC(=O)CN(C)C(=O)[C@H](CC2CCCCC2)N(C)C(=O)CN(C)C(=O)CN(C)C1=O` [Compound 1041] ([NMeL]I[Sar][Sar][NMeCha][Sar][hPhe(3-Cl-4-CF3)]P[Ac5c][NMeT][NMeD]-Piperidide; lactam N-11), the IC50 is 1.6 nM.

For `CCCC[C@@H]1NC(=O)[C@H](Cc2ccccc2)NC(=O)CN(C)C(=O)[C@H](Cc2ccc(Cl)cc2)N(C)C(=O)CN(C)C(=O)CN(C)C(=O)[C@H]([C@@H](C)CC)NC(=O)[C@H](CC(C)C)N(C)C(=O)C[C@@H](C(=O)N2CCCCC2)N(C)C(=O)[C@H](CC(C)C)NC(=O)C(C)(C)N(C)C1=O` [Compound 1043] ([NMeL]I[Sar][Sar][NMePhe(4-Cl)][Sar]F[Nle][NMeAib]L[NMeD]-Piperidide; lactam N-11), the IC50 turned out to be 60 nM.

Turning to `CCCC[C@@H]1NC(=O)[C@H](Cc2cccc(I)c2)NC(=O)CN(C)C(=O)[C@H](Cc2ccc(Cl)cc2)N(C)C(=O)CN(C)C(=O)CN(C)C(=O)[C@H]([C@@H](C)CC)NC(=O)[C@H](CC(C)C)N(C)C(=O)C[C@@H](C(=O)N2CCCCC2)N(C)C(=O)[C@H](CC(C)C)NC(=O)[C@H](Cc2cccc(Cl)c2)N(C)C1=O` [Compound 1044] ([NMeL]I[Sar][Sar][NMePhe(4-Cl)][Sar][Phe(3-I)][Nle][NMePhe(3-Cl)]L[NMeD]-Piperidide; lactam N-11), the IC50 was determined as 55 nM.

For `CC[C@H](C)[C@@H]1NC(=O)[C@H](C)N(C)C(=O)C[C@@H](C(=O)N2CCCC2)NC(=O)[C@H](CC(C)C)N(C)C(=O)[C@H](Cc2ccccc2)N(C)C(=O)[C@@H]2CCCN2C(=O)[C@H](CCc2ccc(C(F)(F)F)cc2)NC(=O)CN(C)C(=O)[C@H](Cc2ccc(Cl)cc2)N(C)C(=O)CN(C)C(=O)CN(C)C1=O` [Compound 1048] ([NMeA]I[Sar][Sar][NMePhe(4-Cl)][Sar][hPhe(4-CF3)]P[NMeF][NMeL]D-Pyrrolidide; lactam N-11), the IC50 is 18 nM.

Consider `CC[C@H](C)[C@@H]1NC(=O)[C@H](CC(C)C)N(C)C(=O)C[C@@H](C)NC(=O)[C@H](C(C)C)N(C)C(=O)C2(CCCC2)NC(=O)[C@@H]2CCCN2C(=O)[C@H](CCc2ccc(C(F)(F)F)c(Cl)c2)NC(=O)CN(C)C(=O)[C@H](CC2CCCCC2)N(C)C(=O)[C@@H]2CCCN2C(=O)CN(C)C1=O` [Compound 1050] (cyclo([Ac5c][NMeV][d(β3hA)][NMeL]I[Sar]P[NMeCha][Sar][hPhe(3-Cl-4-CF3)]P)), for which the IC50 came out at 49 nM.

Regarding `CCCC[C@@H]1NC(=O)[C@H](Cc2cccc(I)c2)NC(=O)CN(C)C(=O)[C@H](Cc2ccc(Cl)cc2)N(C)C(=O)CN(C)C(=O)CN(C)C(=O)[C@H]([C@@H](C)CC)NC(=O)[C@H](CC(C)C)N(C)C(=O)C[C@@H](C(=O)N2CCCCC2)N(C)C(=O)[C@H](CC(C)C)NC(=O)[C@H](Cc2cccc(C(F)(F)F)c2)N(C)C1=O` [Compound 1052] ([NMeL]I[Sar][Sar][NMePhe(4-Cl)][Sar][Phe(3-I)][Nle][NMePhe(3-CF3)]L[NMeD]-Piperidide; lactam N-11), the IC50 was 110 nM.
